This note sets out measurements from ChEMBL document CHEMBL5625225, “Vinylphosphonate-based cyclic dinucleotides enhance STING-mediated cancer immunotherapy” (Eur J Med Chem, 2023).

Data set [1] deals with 4T1. Put plainly: Antitumor immunity against mouse 4T1 cells xenografted in BALB/c syngeneic mouse model assessed as tumor growth inhibition at 0.67 mg/kg, IT(Intratumoral) measured upto 22 days relative to control. The conditions noted are these: 4T1, 528 h, time <= 22 day, read-out: TGI. The data set is classed as functional.
Data set [2] deals with 4T1. Put plainly: Antitumor immunity against mouse 4T1 cells xenografted in BALB/c syngeneic mouse model assessed as tumor growth inhibition at 2 mg/kg, IT(Intratumoral) measured upto 22 days relative to control. The data set is classed as functional. The conditions noted are these: 4T1, 528 h, time <= 22 day, read-out: TGI.
Data set [3] in a line: Toxicity in BALB/c mouse assessed effect on drug tolerance at 0.22 to 2 mg/kg, IT(Intratumoral) measured upto 22 days. The data set is classed as organism-based. The conditions noted are these: in vivo, other, 528 h, dose 0.22-2 mg/kg, time < 22 day.
The nature of data set [4]: Toxicity in BALB/c mouse assessed effect on body weight change at 0.22 to 2 mg/kg, IT(Intratumoral) measured upto 22 days. The data set is classed as organism-based. The conditions noted are these: in vivo, other, 528 h, dose 0.22-2 mg/kg, time < 22 day.
A short description of data set [5]: Stability in human plasma assessed as half life at 5 uM measured upto 120 mins by UPLC/MS analysis. The format is ADME, cell-free.
Data set [6] is described as follows: Stability in mouse plasma assessed as half life at 5 uM measured upto 120 mins by UPLC/MS analysis. The format is ADME, cell-free.
Data set [7] is described as follows: Induction of cytokine production in human PBMC cells assessed as IFN-alpha level incubated for 60 mins followed by washout and measured after 15 hrs. The data set is classed as functional, cell-based.
The target of data set [8] is T1, Stimulator of interferon genes protein (Homo sapiens, UniProt Q86WV6). Put plainly: Agonist activity at wild type STING (unknown origin) expressed in HEK293T cells measured after 7 hrs by Bright-glo luciferase assay. The format is cell-based.
Target sequence in this assay (Q86WV6 whole entry): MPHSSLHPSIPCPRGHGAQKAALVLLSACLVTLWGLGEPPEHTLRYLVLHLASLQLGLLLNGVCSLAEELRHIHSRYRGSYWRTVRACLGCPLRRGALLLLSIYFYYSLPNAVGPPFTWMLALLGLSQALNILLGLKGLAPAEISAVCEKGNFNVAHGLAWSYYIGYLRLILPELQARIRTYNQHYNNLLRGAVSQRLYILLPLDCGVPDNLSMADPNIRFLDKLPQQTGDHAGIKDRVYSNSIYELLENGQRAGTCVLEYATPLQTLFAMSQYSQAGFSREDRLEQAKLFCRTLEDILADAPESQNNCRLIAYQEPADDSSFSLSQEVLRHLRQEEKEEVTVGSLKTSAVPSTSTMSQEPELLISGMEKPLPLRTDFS
Data set [9] in a line: Toxicity in BALB/c mouse assessed effect on animal survival at 0.22 to 2 mg/kg, IT(Intratumoral) measured upto 22 days. The format is organism-based. The conditions noted are these: in vivo, other, 528 h, dose 0.22-2 mg/kg, time < 22 day.
Data set [10] in a line: Induction of cytokine production in human PBMC cells assessed as IFN-gamma level incubated for 60 mins followed by washout and measured after 15 hrs. The format is functional, cell-based.
The target in data set [11] is T1, Stimulator of interferon genes protein. Kind of data set: Agonist activity at wild type STING (unknown origin) expressed in HEK293T cells preincubated for 30 mins followed by washout and measured after 6.5 hrs by Bright-glo luciferase assay. The data set is classed as cell-based.
Target sequence in this assay (Q86WV6 whole entry): as above
Data set [12] is described as follows: Induction of cytokine production in human PBMC cells assessed as TNF-alpha level incubated for 60 mins followed by washout and measured after 15 hrs. The data set is classed as functional, cell-based.
Data set [13] in a line: Toxicity in BALB/c mouse assessed effect on animal survival at 0.67 to 6 mg/kg, IT(Intratumoral) measured upto 22 days. The data set is classed as organism-based. The conditions noted are these: in vivo, other, 528 h, dose 0.67-6 mg/kg, time < 22 day.
Data set [14] in a line: Agonist activity at STING R232H mutant (unknown origin) expressed in digitonin -permeabilized HEK293T cells preincubated for 30 mins followed by washout and measured after 5 hrs by Bright-glo luciferase assay. The data set is classed as cell-based. The conditions noted are these: Homo sapiens, HEK-293T.
The target of data set [15] is T1, Stimulator of interferon genes protein. Kind of data set: Agonist activity at STING R232 mutant (unknown origin) expressed in digitonin -permeabilized HEK293T cells preincubated for 30 mins followed by washout and measured after 5 hrs by Bright-glo luciferase assay. The format is cell-based.
Target sequence in this assay (Q86WV6 whole entry, looked up, change not shown): as the sequence (Q86WV6 whole entry) above
The target of data set [16] is Stimulator of interferon genes protein (Homo sapiens, UniProt Q86WV6, R293Q). Put plainly: Agonist activity at STING R293Q mutant (unknown origin) expressed in digitonin -permeabilized HEK293T cells preincubated for 30 mins followed by washout and measured after 5 hrs by Bright-glo luciferase assay. The data set is classed as cell-based.
The subject of data set [17] is Stimulator of interferon genes protein (Homo sapiens), Q86WV6 [G230A,R293Q]. The conditions noted are these: filed as agonist.
Description: Binding affinity to STING G230A/R293Q mutant (unknown origin) assessed as change in melting temperature by differential scanning fluorimetry analysis
A short description of data set [18]: Toxicity in BALB/c mouse assessed body weight loss at 6 mg/kg, IT(Intratumoral) measured after 7 days relative to control. The format is organism-based. The conditions noted are these: in vivo, other, 168 h, time 7 day.
In data set [19] the test system is 4T1. Kind of data set: Antitumor immunity against mouse 4T1 cells xenografted in BALB/c syngeneic mouse model assessed as reduction in tumor volume measured upto 22 days administered as IT(Intratumoral) dose. The data set is classed as functional. The conditions noted are these: time <= 22.0 day.
A short description of data set [20]: Toxicity in BALB/c mouse assessed effect on body weight change at 0.67 to 6 mg/kg, IT(Intratumoral) measured upto 22 days. The format is organism-based. The conditions noted are these: in vivo, other, 528 h, dose 0.67-6 mg/kg, time < 22 day.
Data set [21] concerns the target Stimulator of interferon genes protein (Homo sapiens, UniProt Q86WV6, G230A/R293Q). Put plainly: Agonist activity at STING G230A/R293Q mutant (unknown origin) expressed in digitonin -permeabilized HEK293T cells preincubated for 30 mins followed by washout and measured after 5 hrs by Bright-glo luciferase assay. The format is cell-based.
Data set [22] can be described thus: Toxicity in BALB/c mouse assessed effect on drug tolerance at 0.67 to 6 mg/kg, IT(Intratumoral) measured upto 22 days. The format is organism-based. The conditions noted are these: in vivo, other, 528 h, dose 0.67-6 mg/kg, time < 22 day.
Data set [23] deals with Stimulator of interferon genes protein (Homo sapiens), Q86WV6 [UNDEFINED MUTATION]. The conditions noted are these: filed as agonist.
Description: Binding affinity to STING R232 mutant (unknown origin) assessed as change in melting temperature by differential scanning fluorimetry analysis
The target in data set [24] is Stimulator of interferon genes protein (Homo sapiens, UniProt Q86WV6, G230A/R293Q/R71H). Put plainly: Agonist activity at STING R71H/G230A/R293Q mutant (unknown origin) expressed in digitonin -permeabilized HEK293T cells preincubated for 30 mins followed by washout and measured after 5 hrs by Bright-glo luciferase assay. The format is cell-based.
Stimulator of interferon genes protein (Homo sapiens, UniProt Q86WV6, G230A/R293Q/R71H), sequence (Q86WV6 whole entry R71H/G230A/R293Q): as the sequence (Q86WV6 whole entry) above, with R71H, G230A, R293Q counted along it

Stimulator of interferon genes protein (Homo sapiens, UniProt Q86WV6, R293Q), sequence (Q86WV6 whole entry R293Q): as the sequence (Q86WV6 whole entry) above, with R293Q counted along it
Stimulator of interferon genes protein (Homo sapiens), Q86WV6 [G230A,R293Q], sequence (Q86WV6 whole entry G230A/R293Q): as the sequence (Q86WV6 whole entry) above, with G230A, R293Q counted along it
Stimulator of interferon genes protein (Homo sapiens, UniProt Q86WV6, G230A/R293Q), sequence (Q86WV6 whole entry G230A/R293Q): as the sequence (Q86WV6 whole entry) above, with G230A, R293Q counted along it
Stimulator of interferon genes protein (Homo sapiens), Q86WV6 [UNDEFINED MUTATION], sequence (Q86WV6 whole entry, looked up, stated change not applied): as the sequence (Q86WV6 whole entry) above

Consider `CC1(C(=O)OCOP2(=O)/C=C/[C@H]3O[C@@H](n4cnc5c(N)ncnc54)[C@H](F)[C@@H]3OP(=O)(OCOC(=O)C3(C)CCCCC3)OC[C@H]3O[C@@H](n4cnc5c(N)ncnc54)[C@H](F)[C@@H]3O2)CCCCC1` (stereo in doubt; 14C), for which the inhibition in vivo at 0.67 mg/kg with 4T1 [1] was 70%. In the data set with 4T1 [2], the inhibition in vivo at 2 mg/kg amounted to 80%. The Activity entry in data set [3], in data set [4] and in data set [9] was “Non-Toxic” throughout. Moreover, the results for the half-life at 5 µM in data set [5] and in [6] were 2.17 h and 0.35 h, respectively. Moreover, the EC50 in [7] (pbmc) was 110 nM; in data set [8], 13 nM; in data set [10] (pbmc), 70 nM; in [11], 30 nM; in [12] (pbmc), 60 nM.
With `Nc1ncnc2c1ncn2[C@@H]1O[C@@H]2/C=C\P(=O)(O)O[C@H]3[C@@H](F)[C@H](n4cnc5c(N)ncnc54)O[C@@H]3COP(=O)(O)O[C@H]2[C@H]1F`, the Activity entry in [13] was “Non-Toxic”; in data set [18] it was 3%; in the data set with 4T1 [19] it was “Dose-Dependent Effect”; in [20], “Non-Toxic”; in data set [22] it was “Non-Toxic”. The concentration for a half-maximal effect (EC50) in data set [14] is 12000 nM; in data set [15] it was 30 nM; in data set [16] it was 1050 nM; in data set [7] (Homo sapiens, PBMC), 110000 nM; in [8], 21500 nM; in data set [21] it was 100 nM. The EC50 in data set [10] (Homo sapiens, PBMC) came to 36000 nM; in [11], 50100 nM; in data set [12] (Homo sapiens, PBMC), 76000 nM; in data set [24], 100 nM. The ΔTm in data set [17] was 11.3 °C; in [23], 6 °C.
